Test results reported in patent US5656662A, “Synthesis of optically pure 4-alkenyl- or 4-alkanyl-2-hydroxytetronic acids” (The Ohio State University Research Foundation, priority 1995, dated 1997).
Several values for one entry are separate records, joined by “and”; a condition that tells them apart may be missing. Equal entries are not always repeated. Where two headings read alike, the source gives them in different places.

Columns and labels:
human platelet = settings: cited from earlier work; for IC50: literature, read-out: IC50, inhibition of AA-induced platelet aggregation
[1] = tested on: human platelet-rich plasma; test: Inhibition of arachidonic acid-induced aggregation in human platelet-rich plasma; type: cell-based
Procedure: The R- and S-enantiomers were tested as inhibitors of arachidonic acid-induced aggregation in human platelet-rich plasma. Data for individual experiments (2 separate donors) are given as pIC50 (log molar inhibitory concentration of each drug which blocks aggregation to arachidonic acid by 50%) Inhibitors were preincubated for 1 minute prior to addition of arachidonic acid (200-400 μM). Changes in light transmission were measured as an index of aggregation and quantified after 4 minutes.

platelet function = settings: cited from earlier work
[2] = Homo sapiens, arithmetic average of raw data, N = 3, read-out: inhibitory concentration which blocks aggregation by 50%, AVE
[3] = Homo sapiens, average, N = 3, read-out: pIC50 (-1xLOG(0.000001xDATA)), AVE (converted)
[4] = Homo sapiens, geometric mean, N = 3, read-out: inhibitory concentration which blocks aggregation by 50%, back-transformed data (Geometric mean) AVE

Row | IC50 [1, 2] [µM] | IC50 [1, 3] [µM] | IC50 [1, 4] [µM] | Structure (SMILES) | IC50 (human platelet) [µM] | also measured
1 | – | – | – | O=C1OC(c2ccc(-c3ccccc3)cc2)C(O)=C1O (centres unmarked) [Example 4-biphenyl] | 135 | –
2 | 653 | 647 | 647 | CCCCC/C=C\C/C=C\C/C=C\C/C=C\CC[C@H]1OC(=O)C(O)=C1O [(R)-3,4-Dihydroxy-5-[all-Z)-3,6,9,12-octadecatetraenyl]-2(51H)-furanone] | – | IC50 ([1]; Homo sapiens, individual experiments, human platelet-rich plasma, arachidonic acid 200-400 μM, 1 minute preincubation, quantified after 4 minutes, read-out: inhibitory concentration which blocks aggregation to arachidonic acid by 50% (RAW DATA)): 764 µM; IC50 ([1]; Homo sapiens, individual experiments, human platelet-rich plasma, arachidonic acid 200-400 μM, read-out: pIC50 (-1xLOG(0.000001xDATA)) (converted)): 764 µM; pIC50 (-1xLOG(0.000001xDATA)) ([1]; individual experiments, human platelet-rich plasma, arachidonic acid 200-400 μM): 3.269 and 3.182; IC50 ([1]; individual experiments, human platelet-rich plasma, arachidonic acid 200-400 μM, 1 minute preincubation, quantified after 4 minutes, read-out: inhibitory concentration which blocks aggregation to arachidonic acid by 50% (RAW DATA)): 538 µM and 657 µM
3 | – | – | – | O=C1OC(c2ccc(Cl)cc2)C(O)=C1O (centres unmarked) [CHTA, 4-(4-chlorophenyl)-2-hydroxytetronic acid] | – | antilipidemic and antiaggregatory properties (human platelet): possesses antilipidemic and antiaggregatory properties; inhibition of platelet function (platelet function): inhibits platelet function by both enzyme inhibitory and ROS scavenging mechanisms resulting ultimately in the blockage of thromboxane A2 synthesis
4 | 2.27 | 1.45 | 1.45 | CCCCC/C=C\C/C=C\C/C=C\C/C=C\CC[C@@H]1OC(=O)C(O)=C1O [(S)-3,4 -Dihydroxy-5-[(all-Z)-3,6,9,12-octadecatetraenyl]-2 (5H)-furanone] | – | –
5 | – | – | – | O=C1OC(c2ccc(-c3ccc(Cl)cc3)cc2)C(O)=C1O (centres unmarked) [4-(4'-chlorobiphenyl)-2-hydroxytetronic acids] | 44 | –
